Consider 26 compounds from patent US10450270B2, “Glyoxamide substituted pyrrolamide derivatives and the use thereof as medicaments for the treatment of hepatitis B” (Janssen Sciences Ireland UC, priority 2013, dated 2019).

The CC50 is the concentration that lowers cell viability or growth by half. A higher CC50 goes with better tolerance by the cells. The EC50 is the midpoint of the concentration-response curve.

Data set [1] can be described thus: Cytotoxicity in HepG2 cells, Resazurin viability assay. The note with it: human, HepG2 cells. (In general: Resazurin is reduced to fluorescent resorufin, in cell work by metabolically active cells.)
The subject of another data set is HBV. Briefly: Anti-HBV activity, HepG2.117 inducible HBV producing cell line (Tet-off), intracellular HBV DNA by realtime PCR. It counts as cell-based. The note with it: Hepatitis B virus, 72 h; HepG2.117 cells, 3 days of treatment, intracellular HBV DNA; read-out: HepG2 117 EC50.

In data set [1], `Cc1c(C(=O)C(=O)N[C@H](C)C(C)(F)F)cc(C(=O)Nc2ccc(F)c(C#N)c2)n1C` [Compound 54, N-(3-cyano-4-fluoro-phenyl)-4-[2-[[(1R)-2,2-difluoro-1-methyl-propyl]-amino]-2-oxo-acetyl]-1,5-dimethyl-pyrrole-2-carboxamide] returned a CC50 at 4 days greater than 25000 nM. Also, the EC50 in the data set on HBV stood at 10 nM.
The corresponding values for `Cc1c(C(=O)C(=O)NC2(C(F)(F)F)CCOC2)c(Cl)c(C(=O)Nc2ccc(F)c(C#N)c2)n1C` (racemic) [Compound 41, 3-chloro-N-(3-cyano-4-fluoro-phenyl)-1,5-dimethyl-4-[2-oxo-2-[[3-(tri-fluoromethyl)tetrahydrofuran-3-yl]amino]acetyl]pyrrole-2-carboxamide] are greater than 25000 nM and 3 nM.
Compound `Cc1c(C(=O)C(=O)NC(C)(C)CCO)cc(C(=O)Nc2ccc(F)c(C#N)c2)n1C` [Compound 81, N-(3-cyano-4-fluoro-phenyl)-4-[2-[(3-hydroxy-1,1-dimethyl-propyl)amino]-2-oxo-acetyl]-1,5-dimethyl-pyrrole-2-carboxamide] came in with a CC50 at 4 days in data set [1] greater than 25000 nM. The EC50 with HBV is 12 nM.
The corresponding values for `C[C@@H](NC(=O)C(=O)c1c(Br)c(C(=O)Nc2ccc(F)c(C#N)c2)n(C)c1Br)C(F)(F)F` [Compound 27, 3,5-dibromo-N-(3-cyano-4-fluoro-phenyl)-1-methyl-4-[2-oxo-2-[[(1R)-2,2,2-trifluoro-1-methyl-ethyl]amino]acetyl]pyrrole-2-carboxamide] are greater than 25000 nM and 5 nM.
The corresponding values for `Cc1c(C(=O)C(=O)NC2(C)COC2)cc(C(=O)Nc2ccc(F)c(C#N)c2)n1C` [Compound 60, N-(3-cyano-4-fluoro-phenyl)-1,5-dimethyl-4-[2-[(3-methyloxetan-3-yl)-amino]-2-oxo-acetyl]pyrrole-2-carboxamide] are greater than 25000 nM and 11 nM.
In data set [1], `Cc1c(C(=O)C(=O)NC(CCO)C2CC2)cc(C(=O)Nc2ccc(F)c(C#N)c2)n1C` (stereo not shown) [Compound 74, N-(3-cyano-4-fluoro-phenyl)-4-[2-[(1-cyclopropyl-3-hydroxy-propyl)-amino]-2-oxo-acetyl]-1,5-dimethyl-pyrrole-2-carboxamide] came in with a CC50 at 4 days greater than 25000 nM. For the same compound, in the data set with HBV, the EC50 was 15 nM.
For `C[C@@H](NC(=O)C(=O)c1cc(C(=O)Nc2ccc(F)c(C#N)c2)n(C)c1)C(F)(F)F` [Compound 64, N-(3-cyano-4-fluoro-phenyl)-1-methyl-4-[2-oxo-2-[[(1R)-2,2,2-trifluoro-1-methyl-ethyl]amino]acetyl]pyrrole-2-carboxamide], in that order: greater than 25000 nM and 66 nM.
For `Cc1c(C(=O)C(=O)NC(C)(C)C)c(F)c(C(=O)Nc2ccc(F)c(C#N)c2)n1C` [Compound 36, 4-[2-(tert-butylamino)-2-oxo-acetyl]-N-(3-cyano-4-fluoro-phenyl)-3-fluoro-1,5-dimethyl-pyrrole-2-carboxamide], in that order: greater than 25000 nM and less than 4 nM.
For `Cc1c(C(=O)C(=O)N[C@H]2CCCC[C@@H]2O)cc(C(=O)Nc2ccc(F)c(C#N)c2)n1C` [Compound 67, N-(3-cyano-4-fluoro-phenyl)-4-[2-[[(1S,2S)-2-hydroxycyclohexyl]amino]-2-oxo-acetyl]-1,5-dimethyl-pyrrole-2-carboxamide], in that order: greater than 25000 nM and 94 nM.
For the compound `COCC(C)(C)NC(=O)C(=O)c1cc(C(=O)Nc2ccc(F)c(C#N)c2)n(C)c1C` [Compound 79, N-(3-cyano-4-fluoro-phenyl)-4-[2-[(2-methoxy-1,1-dimethyl-ethyl)amino]-2-oxo-acetyl]-1,5-dimethyl-pyrrole-2-carboxamide], in data set [1], the half-maximal cytotoxic concentration (CC50) at 4 days was greater than 25000 nM. Moreover, in the data set with HBV, the EC50 came out at 8 nM.
The corresponding values for `Cc1c(C(=O)C(=O)NC2(C(F)(F)F)CC2)cc(C(=O)Nc2ccc(F)c(C#N)c2)n1C` [Compound 57, N-(3-cyano-4-fluoro-phenyl)-1,5-dimethyl-4-[2-oxo-2-[[1-(trifluoromethyl)-cyclopropyl]amino]acetyl]pyrrole-2-carboxamide] are greater than 25000 nM and 6 nM.
For `Cc1c(C(=O)C(=O)NC(C)(C)CO)cc(C(=O)Nc2ccc(F)c(C#N)c2)n1C` [Compound 94, N-(3-cyano-4-fluoro-phenyl)-4-[2-[(2-hydroxy-1,1-dimethyl-ethyl)amino]-2-oxo-acetyl]-1,5-dimethyl-pyrrole-2-carboxamide], in that order: greater than 25000 nM and 4 nM.
In data set [1], `Cn1cc(C(=O)C(=O)NC2(C(F)(F)F)CCC2)c(Cl)c1C(=O)Nc1ccc(F)c(C#N)c1` [Compound 39, 3-chloro-N-(3-cyano-4-fluoro-phenyl)-1-methyl-4-[2-oxo-2-[[1-(tri-fluoromethyl)cyclobutyl]amino]acetyl]pyrrole-2-carboxamide] showed a CC50 at 4 days greater than 25000 nM. Further, the EC50 in the data set with HBV was found to be 6 nM.
For `CC[C@H](C)[C@@H](CO)NC(=O)C(=O)c1cc(C(=O)Nc2ccc(F)c(C#N)c2)n(C)c1C` [Compound 69, N-(3-cyano-4-fluoro-phenyl)-4-[2-[[(1S,2S)-1-(hydroxymethyl)-2-methyl-butyl]amino]-2-oxo-acetyl]-1,5-dimethyl-pyrrole-2-carboxamide], in that order: greater than 25000 nM and 49 nM.
On to `Cc1c(C(=O)C(=O)NC2(C)CC(F)(F)C2)c(Cl)c(C(=O)Nc2ccc(F)c(C#N)c2)n1C` [Compound 47, 3-chloro-N-(3-cyano-4-fluoro-phenyl)-4-[2-[(3,3-difluoro-1-methyl-cyclo-butyl)amino]-2-oxo-acetyl]-1,5-dimethyl-pyrrole-2-carboxamide], for which the CC50 at 4 days in data set [1] is greater than 25000 nM. Moreover, the EC50 in the data set on HBV is less than 4 nM.
For `CC[C@@H](NC(=O)C(=O)c1c(Cl)c(C(=O)Nc2ccc(F)c(C#N)c2)n(C)c1C)C(F)(F)F` [Compound 42, 3-chloro-N-(3-cyano-4-fluoro-phenyl)-1,5-dimethyl-4-[2-oxo-2-[[(1R)-1-(trifluoromethyl)propyl]amino]acetyl]pyrrole-2-carboxamide], in that order: greater than 25000 nM and 2 nM.
For `Cn1cc(C(=O)C(=O)NC2(C(F)(F)F)CCC2)c(F)c1C(=O)Nc1ccc(F)c(C#N)c1` [Compound 84, N-(3-cyano-4-fluoro-phenyl)-3-fluoro-1-methyl-4-[2-oxo-2-[[1-(trifluoro-methyl)cyclobutyl]amino]acetyl]pyrrole-2-carboxamide], in that order: 21900 nM and 3 nM.
The corresponding values for `COCC(C)(NC(=O)C(=O)c1cc(C(=O)Nc2ccc(F)c(C#N)c2)n(C)c1C)C(F)(F)F` (stereo not shown) [Compound 80, N-(3-cyano-4-fluoro-phenyl)-1,5-dimethyl-4-[2-oxo-2-[[2,2,2-trifluoro-1-(methoxymethyl)-1-methyl-ethyl]amino]acetyl]pyrrole-2-carboxamide] are greater than 25000 nM and 7 nM.
For `C[C@@H](NC(=O)C(=O)c1c(Cl)c(C(=O)Nc2ccc(F)c(C#N)c2)n(C)c1Cl)C(F)(F)F` [Compound 86, 3,5-dichloro-N-(3-cyano-4-fluoro-phenyl)-1-methyl-4-[2-oxo-2-[[(1R)-2,2,2-trifluoro-1-methyl-ethyl]amino]acetyl]pyrrole-2-carboxamide], the CC50 at 4 days in data set [1] is greater than 25000 nM. Further, in the data set on HBV, the EC50 was 6 nM.
For `Cc1c(C(=O)C(=O)N[C@H]2CCC[C@@H]2O)cc(C(=O)Nc2ccc(F)c(C#N)c2)n1C` [Compound 65, N-(3-cyano-4-fluoro-phenyl)-4-[2-[[(1S,2S)-2-hydroxycyclopentyl]amino]-2-oxo-acetyl]-1,5-dimethyl-pyrrole-2-carboxamide], in that order: greater than 25000 nM and 160 nM.
With `Cc1c(C(=O)C(=O)NC2(C)CC(F)(F)C2)c(F)c(C(=O)Nc2ccc(F)c(C#N)c2)n1C` [Compound 37, N-(3-cyano-4-fluoro-phenyl)-4-[2-[(3,3-difluoro-1-methyl-cyclobutyl)-amino]-2-oxo-acetyl]-3-fluoro-1,5-dimethyl-pyrrole-2-carboxamide], the CC50 at 4 days in data set [1] is greater than 25000 nM. The EC50 with HBV is 2 nM.
For `Cc1c(C(=O)C(=O)N[C@@H](C)C(C)(F)F)cc(C(=O)Nc2ccc(F)c(C#N)c2)n1C` [Compound 55, N-(3-cyano-4-fluoro-phenyl)-4-[2-[[(1S)-2,2-difluoro-1-methyl-propyl]-amino]-2-oxo-acetyl]-1,5-dimethyl-pyrrole-2-carboxamide], in that order: greater than 25000 nM and 9 nM.
For `C[C@@H](NC(=O)C(=O)c1cn(C)c(C(=O)Nc2ccc(F)c(C#N)c2)c1F)C(F)(F)F` [Compound 85, N-(3-cyano-4-fluoro-phenyl)-3-fluoro-1-methyl-4-[2-oxo-2-[[(1R)-2,2,2-trifluoro-1-methyl-ethyl]amino]acetyl]pyrrole-2-carboxamide], in that order: greater than 25000 nM and 14 nM.
The corresponding values for `Cc1c(C(=O)C(=O)N[C@H](C)C(C)(F)F)c(Cl)c(C(=O)Nc2ccc(F)c(C#N)c2)n1C` [Compound 46, 3-chloro-N-(3-cyano-4-fluoro-phenyl)-4-[2-[[(1R)-2,2-difluoro-1-methyl-propyl]amino]-2-oxo-acetyl]-1,5-dimethyl-pyrrole-2-carboxamide] are greater than 25000 nM and 3 nM.
`Cc1c(C(=O)C(=O)NC2(C(F)(F)F)CCC2)c(Cl)c(C(=O)Nc2ccc(F)c(C#N)c2)n1C` [Compound 43, 3-chloro-N-(3-cyano-4-fluoro-phenyl)-1,5-dimethyl-4-[2-oxo-2-[[1-(tri-fluoromethyl)cyclobutyl]amino]acetyl]pyrrole-2-carboxamide] had a CC50 at 4 days in data set [1] greater than 25000 nM. For the same compound, the EC50 in the data set on HBV was found to be 3 nM.
In turn, `Cn1c(C(=O)Nc2ccc(F)c(C#N)c2)c(Cl)c(C(=O)C(=O)NC(C)(C)C)c1C1CC1` [Compound 48, 4-[2-(tert-butylamino)-2-oxo-acetyl]-3-chloro-N-(3-cyano-4-fluoro-phenyl)-5-cyclopropyl-1-methyl-pyrrole-2-carboxamide] had a CC50 at 4 days in data set [1] greater than 25000 nM. Also, the EC50 in the data set on HBV worked out at 22 nM.
